The text below walks through data of patent US20040023807A1, “3-Arylisothiazoles and their use as herbicides” (priority 2000, published 2004).

SMILES strings stand for the structures.

Data set [1] relates to catchweed bedstraw (GALAP). Description: greenhouse herbicidal action, post-emergence treatment. The class given is in vivo. To be noted: application rates of 15.6 and 31.3 g of a.s./ha. From the text: (§1) The seeds of the test plants were sewn separately for each species. For the post-emergence treatment, the test plants were first grown to a height of from 3 to 15 cm, depending on the plant habit, and only then treated with the active compounds which had been suspended or emulsified in water. The test plants were for this purpose either sown directly and grown in the same containers, or they were first grown separately as seedlings and transplanted into the test containers a few days prior to treatment. The application rate for the post-emergence treatment was 31.3 and 15.6 g of a.s./ha. Depending on the species, the plants were kept at 10-25° C. or 20-35° C. The test period extended over 2 to 4 weeks. During this time, the plants were tended, and their response to the individual treatments was evaluated. The evaluation was carried out using a scale from 0 to 100. 100 means no emergence of the plants, or complete destruction of at least the above-ground parts, and 0 means no damage, or normal course of growth. The plants used in the greenhouse experiments were of the following species: [table]

Data set [2] has as its system dayflower (COMBE). Described as above. It is filed as in vivo. To be noted: application rates of 15.6 and 31.3 g of a.s./ha.
Description: as §1

The subject of data set [3] is velvet leaf (ABUTH). The description is as above. It is filed as in vivo. To be noted: application rates of 15.6 and 31.3 g of a.s./ha.
Description: as §1

Data set [4] relates to morning glory (IPOSS). The data set is described as above. It is filed as in vivo. As to conditions: application rates of 15.6 and 31.3 g of a.s./ha.
Description: as §1

Data set [5] deals with redroot pigweed (AMARE). The description is as above. The class given is in vivo. To be noted: application rates of 15.6 and 31.3 g of a.s./ha.
Description: as §1

By melting point is commonly meant the temperature of the solid-liquid transition. Compound `CS(=O)(=O)Nc1cc(-c2nsc(C(F)(F)F)c2Cl)c(Cl)cc1Cl` [IAa.361, N-{2,4-Dichloro-5-[4-chloro-5-(trifluoromethyl)-3-isothiazolyl]-phenyl}methanesulfonamide] showed a melting point of 161 to 164 °C.

`COC(=O)C(C)Oc1cc(-c2nsc(C(F)(F)F)c2Cl)c(F)cc1Cl` (stereo not shown) [IAa.727, Methyl 2-[2-chloro-4-fluoro-5-(4-chloro-5-trifluoromethylisothiazol-3-yl)phenoxy]propionate]: the herbicidal action result in data set [1], in data set [2], in data set [3], in data set [4] and in data set [5] was “very good herbicidal action” throughout.

For `FC(F)(F)c1snc(-c2c(Cl)cc(Cl)c3nc(C4CC4)oc23)c1Cl` [IDa.67, 4,6-Dichloro-7-(4-chloro-5-trifluoromethyl-3-isothiazolyl)-2-cyclopropyl-1,3-benzoxazole], the melting point was in the range of 110 to 111 °C.
